Measured values published in BigSolDB 2.1.

O=C(O)c1ccc(CO)cc1
solubility (mole fraction)
Settings | in ethanol | in ethyl acetate | in ethyl formate | in isopropanol | in isopropyl acetate | in methanol | in n-butyl acetate | in n-propanol | in water
283.15 K | 0.0289 | 0.00475 | 0.00168 | 0.0268 | 0.00324 | 0.0282 | 0.00341 | 0.0236 | 0.000244
288.15 K | 0.0325 | 0.00528 | 0.00259 | 0.0294 | 0.00444 | 0.0323 | 0.00463 | 0.026 | 0.000254
293.15 K | 0.0367 | 0.00653 | 0.00319 | 0.0337 | 0.00481 | 0.0361 | 0.00508 | 0.0298 | 0.0003
298.15 K | 0.0414 | 0.00797 | 0.00396 | 0.0391 | 0.00599 | 0.0414 | 0.00622 | 0.0345 | 0.00039
303.15 K | 0.0468 | 0.00919 | 0.00431 | 0.044 | 0.00827 | 0.0473 | 0.00854 | 0.0367 | 0.000532
308.15 K | 0.0529 | 0.0109 | 0.00535 | 0.0523 | 0.00969 | 0.0535 | 0.01 | 0.0446 | 0.000641
313.15 K | 0.0599 | 0.0133 | 0.00704 | 0.0602 | 0.0113 | 0.0608 | 0.0117 | 0.0516 | 0.000816
318.15 K | 0.0678 | 0.0161 | 0.00773 | 0.0697 | 0.0127 | 0.0682 | 0.0132 | 0.0591 | 0.000993
323.15 K | 0.0768 | 0.0199 | 0.00889 | 0.0826 | 0.0155 | 0.078 | 0.0158 | 0.0705 | 0.00128
